Assay results: ChEMBL document CHEMBL1137061 (Bioorg Med Chem Lett, 2004)

How the values were obtained:
Type in all cases: cell membranes, Membrane
[1] = target: Neuronal acetylcholine receptor; alpha4/beta2 (Rattus norvegicus, UniProt P09483+P12390); experiment: Inhibition of [3H]epibatidine binding to alpha 4 beta 2 nicotinic acetylcholine receptor of rat cortex membranes
[2] = target: Muscarinic acetylcholine receptor; experiment: Inhibition of [3H]N-methylscopolamine binding to muscarinic receptor of rat cortex membranes
[3] = target: Neuronal acetylcholine receptor subunit alpha-7 (Rattus norvegicus, UniProt Q05941)
Chain of Neuronal acetylcholine receptor subunit alpha-7 (Q05941 whole entry): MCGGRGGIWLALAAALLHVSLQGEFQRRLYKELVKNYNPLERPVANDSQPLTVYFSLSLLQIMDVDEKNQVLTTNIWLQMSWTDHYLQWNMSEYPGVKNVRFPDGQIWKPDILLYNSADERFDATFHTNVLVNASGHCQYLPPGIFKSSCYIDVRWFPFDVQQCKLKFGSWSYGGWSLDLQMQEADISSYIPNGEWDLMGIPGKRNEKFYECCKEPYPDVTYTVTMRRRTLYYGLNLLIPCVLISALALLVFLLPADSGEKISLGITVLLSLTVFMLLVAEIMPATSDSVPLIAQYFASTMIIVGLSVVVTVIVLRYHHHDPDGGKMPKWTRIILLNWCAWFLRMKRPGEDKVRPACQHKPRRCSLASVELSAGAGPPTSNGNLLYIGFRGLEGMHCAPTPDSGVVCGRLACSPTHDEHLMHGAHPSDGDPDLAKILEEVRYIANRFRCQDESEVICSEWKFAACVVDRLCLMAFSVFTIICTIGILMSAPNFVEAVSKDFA

Chain of Neuronal acetylcholine receptor; alpha4/beta2 (P09483 whole entry): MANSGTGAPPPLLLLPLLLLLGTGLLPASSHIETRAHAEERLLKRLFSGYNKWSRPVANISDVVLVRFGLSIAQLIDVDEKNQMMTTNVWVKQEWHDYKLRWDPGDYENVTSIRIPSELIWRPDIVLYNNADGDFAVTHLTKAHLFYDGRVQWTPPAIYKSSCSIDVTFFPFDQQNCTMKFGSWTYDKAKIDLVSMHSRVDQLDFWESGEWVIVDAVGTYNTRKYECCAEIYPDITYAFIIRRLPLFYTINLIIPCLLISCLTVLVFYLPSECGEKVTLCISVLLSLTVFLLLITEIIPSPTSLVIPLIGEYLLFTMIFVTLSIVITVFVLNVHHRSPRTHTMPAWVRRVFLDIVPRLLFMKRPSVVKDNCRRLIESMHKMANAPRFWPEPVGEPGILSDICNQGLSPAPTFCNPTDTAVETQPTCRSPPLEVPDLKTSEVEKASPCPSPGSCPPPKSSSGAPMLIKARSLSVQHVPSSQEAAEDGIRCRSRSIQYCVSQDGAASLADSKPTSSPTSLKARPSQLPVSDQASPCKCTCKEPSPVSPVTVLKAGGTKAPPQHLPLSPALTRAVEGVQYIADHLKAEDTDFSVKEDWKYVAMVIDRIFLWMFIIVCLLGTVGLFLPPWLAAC
Chain of Neuronal acetylcholine receptor; alpha4/beta2 (P12390 whole entry): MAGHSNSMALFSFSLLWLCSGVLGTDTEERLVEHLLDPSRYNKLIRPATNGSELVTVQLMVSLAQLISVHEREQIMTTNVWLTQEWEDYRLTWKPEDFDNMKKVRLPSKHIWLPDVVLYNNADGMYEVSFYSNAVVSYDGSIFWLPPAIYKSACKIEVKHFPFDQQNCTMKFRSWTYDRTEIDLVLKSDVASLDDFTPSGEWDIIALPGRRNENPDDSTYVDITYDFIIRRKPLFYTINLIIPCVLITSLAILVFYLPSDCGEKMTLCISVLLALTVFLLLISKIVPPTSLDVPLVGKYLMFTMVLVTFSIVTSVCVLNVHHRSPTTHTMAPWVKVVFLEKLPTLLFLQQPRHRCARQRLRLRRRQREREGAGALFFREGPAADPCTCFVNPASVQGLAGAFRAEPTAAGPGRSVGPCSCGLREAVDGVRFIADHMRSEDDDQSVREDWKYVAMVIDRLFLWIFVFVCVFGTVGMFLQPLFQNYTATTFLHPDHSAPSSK

SMILES	Ki [1]	Ki [2]	Ki [3]
CC=NOC[C@@H]1CCCN1C	0.68 µM	> 50 µM	> 50 µM
CC(C)O/N=C/[C@H]1CCCN1C	5.5 µM		47 µM
C/C=N\OC[C@H]1CCCN1C	5.79 µM		
CC(C)O/N=C/[C@@H]1CCCN1C		17 µM	> 50 µM
CC(C)=NOC[C@@H]1CCCN1C	0.52 µM	> 50 µM	49 µM
CC(C)=NO[C@H]1CCCN(C)C1	> 50 µM		
CC(C)O/N=C\[C@H]1CCCN1C	14.5 µM		
CC(C)=NO[C@@H]1CCCN(C)C1	> 50 µM		
CC(C)O/N=C\[C@@H]1CCCN1C	1.9 µM		
C/C=N\OC[C@@H]1CCCN1C		> 50 µM	> 50 µM
Cc1cc([C@@H]2CCCN2C)on1 [ABT-418]	0.02 µM		1.2 µM
